Article PMC5686171 (Scientific Reports, 2017)
Like-named read-outs stand apart in the source and are kept apart here.

Legend:
β2γ2 GABAA receptors = biological target: T1, β2γ2 GABAA receptors (Rattus norvegicus, UniProt P18508+P63138); test: Two-electrode voltage clamp, wild type β2γ2 receptors expressed in Xenopus oocytes; format: cell-based; settings: for GABA current amplitude: 10 mM GABA; for DZ potentiation: 1 µM diazepam, GABA eliciting 1–5% of maximal current
T1 construct: expressed in transfected cells; host or cells: Xenopus laevis oocytes (cRNA injection, β2:γ2 1:3)
Description: (§1) Animal experiments were carried out in strict accordance to the Swiss ethical guidelines, and have been approved by the local committee of the Canton Bern Kantonstierarzt, Kantonaler Veterinärdienst Bern (BE85/15). Surgery of Xenopus laevis to obtain the oocytes was done under anesthesia, and all efforts were made to diminish animal suffering. Oocytes were prepared, injected and defolliculated as described previously[41],[42]. Polyadenylated cRNA coding for the subunits of GABAA receptors were prepared in vitro with the mMESSAGE mMACHINE kit (Ambion, Austin, TX, USA). Oocytes were injected with 50 nl of solution containing cRNA coding for wild type or mutants β2 (1 fMol) or γ2 (3 fMol) subunits and then incubated in modified Barth’s solution (10 mM HEPES, pH 7.5, 88 mM NaCl, 1 mM KCl, 2.4 mM NaHCO3, 0.82 mM MgSO4, 0.34 mM Ca(NO3)2, 0.41 mM CaCl2, 100 units/ml penicillin, 100 µg/ml streptomycin) at 18 °C for 5–7 days before measurements.
(§2) Electrophysiological experiments were performed using an Oocyte Clamp OC-725 (Warner Instrument Corp., Hamden, USA) two-electrode voltage clamp amplifier. Currents were digitized at 5 kHz with MacLab/200 (AD Instruments, Spechbach, Germany).
(§3) The holding potential was −80 mV. The perfusion medium contained 90 mM NaCl, 1 mM KCl, 1 mM MgCl2, 1 mM CaCl2 and 5 mM Na-HEPES (pH 7.4). The perfusion solution (6 ml/min) was applied through a glass capillary with an inner diameter of 1.35 mm, the mouth of which was placed about 0.5 mm from the surface of the oocyte. […] Maximal current amplitudes (Imax) were obtained from the fits of the concentration-response curves. The individual curves were fitted and standardized to Imax and subsequently averaged. […] The duration of washout periods was 4 min in between agonist or agonist/drug applications to prevent receptor desensitization. […]

β2 = biological target: T2, β2 (Rattus norvegicus, UniProt P63138); test: Two-electrode voltage clamp, β2 subunit expressed alone in Xenopus oocytes; format: cell-based
T2 construct: expressed in transfected cells; host or cells: Xenopus laevis oocytes (cRNA injection)
Description: as §1, §2
(§4) The holding potential was −80 mV. The perfusion medium contained 90 mM NaCl, 1 mM KCl, 1 mM MgCl2, 1 mM CaCl2 and 5 mM Na-HEPES (pH 7.4). […]

γ2 = biological target: T3, γ2 (Rattus norvegicus, UniProt P18508); test: Two-electrode voltage clamp, γ2 subunit expressed alone in Xenopus oocytes; format: cell-based
T3 construct: expressed in transfected cells; host or cells: Xenopus laevis oocytes (cRNA injection)
Description: as §1, §2, §4

β2Y62Lγ2 = biological target: T4, β2Y62Lγ2 (Rattus norvegicus, UniProt P18508+P63138, Y86L); test: Two-electrode voltage clamp, mutant β2Y62Lγ2 in Xenopus oocytes; format: cell-based; settings: for DZ potentiation: 1 µM diazepam
T4 construct: expressed in transfected cells; host or cells: Xenopus laevis oocytes (cRNA injection, β2:γ2 1:3)
Description: (§5) The point mutations β2Y62Lγ2, β2T202Aγ2, β2T202Sγ2, β2Y205Sγ2, β2Y205Qγ2, β2γ2F77Y, β2γ2S217A, β2γ2Y220S and β2γ2Y220Q were prepared using the QuickChange^TM mutagenesis kit (Stratagene, Agilent Technologies, Basel, Switzerland).
as §1, §2, §3

β2T202Sγ2 = biological target: T5, β2T202Sγ2 (Rattus norvegicus, UniProt P18508+P63138, T226S); test: Two-electrode voltage clamp, mutant β2T202Sγ2 in Xenopus oocytes; format: cell-based; settings: for DZ potentiation: 1 µM diazepam
T5 construct: expressed in transfected cells; host or cells: Xenopus laevis oocytes (cRNA injection, β2:γ2 1:3)
Description: as §5, §1, §2, §3

γ2F77Yβ2 = biological target: T6, γ2F77Yβ2 (Rattus norvegicus, UniProt P18508+P63138, F115Y); test: Two-electrode voltage clamp, mutant γ2F77Yβ2 in Xenopus oocytes; format: cell-based; settings: for DZ potentiation: 1 µM diazepam
T6 construct: expressed in transfected cells; host or cells: Xenopus laevis oocytes (cRNA injection, β2:γ2 1:3)
Description: as §5, §1, §2, §3

γ2S217Aβ2 = biological target: T7, γ2S217Aβ2 (Rattus norvegicus, UniProt P18508+P63138, S255A); test: Two-electrode voltage clamp, mutant γ2S217Aβ2 in Xenopus oocytes; format: cell-based; settings: for DZ potentiation: 1 µM diazepam
T7 construct: expressed in transfected cells; host or cells: Xenopus laevis oocytes (cRNA injection, β2:γ2 1:3)
Description: as §5, §1, §2, §3

γ2Y220Qβ2 = biological target: T8, γ2Y220Qβ2 (Rattus norvegicus, UniProt P18508+P63138, Y258Q); test: Two-electrode voltage clamp, mutant γ2Y220Qβ2 in Xenopus oocytes; format: cell-based; settings: for DZ potentiation: 1 µM diazepam
T8 construct: expressed in transfected cells; host or cells: Xenopus laevis oocytes (cRNA injection, β2:γ2 1:3)
Description: as §5, §1, §2, §3

β2T202Aγ2 = biological target: T9, β2T202Aγ2 (Rattus norvegicus, UniProt P18508+P63138, T226A); test: Two-electrode voltage clamp, mutant β2T202Aγ2 in Xenopus oocytes; format: cell-based; settings: 50 µM etomidate
T9 construct: expressed in transfected cells; host or cells: Xenopus laevis oocytes (cRNA injection, β2:γ2 1:3)
Description: as §5, §1
(§6) Electrophysiological experiments were performed using an Oocyte Clamp OC-725 (Warner Instrument Corp., Hamden, USA) two-electrode voltage clamp amplifier. […]

β2Y205Sγ2 = biological target: T10, β2Y205Sγ2 (Rattus norvegicus, UniProt P18508+P63138, Y229S); test: Two-electrode voltage clamp, mutant β2Y205Sγ2 in Xenopus oocytes; format: cell-based; settings: 50 µM etomidate
T10 construct: expressed in transfected cells; host or cells: Xenopus laevis oocytes (cRNA injection, β2:γ2 1:3)
Description: as §5, §1, §6

β2Y205Qγ2 = biological target: T11, β2Y205Qγ2 (Rattus norvegicus, UniProt P18508+P63138, Y229Q); test: Two-electrode voltage clamp, mutant β2Y205Qγ2 in Xenopus oocytes; format: cell-based; settings: 50 µM etomidate
T11 construct: expressed in transfected cells; host or cells: Xenopus laevis oocytes (cRNA injection, β2:γ2 1:3)
Description: as §5, §1, §6

γ2Y220Sβ2 = biological target: T12, γ2Y220Sβ2 (Rattus norvegicus, UniProt P18508+P63138, Y258S); test: Two-electrode voltage clamp, mutant γ2Y220Sβ2 in Xenopus oocytes; format: cell-based; settings: 50 µM etomidate
T12 construct: expressed in transfected cells; host or cells: Xenopus laevis oocytes (cRNA injection, β2:γ2 1:3)
Description: as §5, §1, §6

α1β2Y62Lγ2 receptors = test: Effect of mutation β2Y62L in α1β2γ2 receptors; format: cell-based; settings: 50 µM etomidate vs GABA
α1T206C in α1β2γ2 = settings: ref [12],[27]; cited from earlier work
α1T206V in α1β2γ2 = settings: ref [28]; cited from earlier work
γ2F77Y in α1β2γ2 = settings: ref [29], cited from earlier work
α1T206A in α1β2γ2 = settings: ref [26]; cited from earlier work
[1] = system: mice carrying a point mutation in all those four alpha subunits; parameters: method as in Ralvenius et al.[40]; settings: point-mutated mice, 10 mg/kg diazepam, ref Ralvenius et al.[40], cited from earlier work
α1β2γ2 = settings: read-out: EC50 of diazepam; cited from earlier work

T5 sequence (P63138 25-474 T226S limits assumed): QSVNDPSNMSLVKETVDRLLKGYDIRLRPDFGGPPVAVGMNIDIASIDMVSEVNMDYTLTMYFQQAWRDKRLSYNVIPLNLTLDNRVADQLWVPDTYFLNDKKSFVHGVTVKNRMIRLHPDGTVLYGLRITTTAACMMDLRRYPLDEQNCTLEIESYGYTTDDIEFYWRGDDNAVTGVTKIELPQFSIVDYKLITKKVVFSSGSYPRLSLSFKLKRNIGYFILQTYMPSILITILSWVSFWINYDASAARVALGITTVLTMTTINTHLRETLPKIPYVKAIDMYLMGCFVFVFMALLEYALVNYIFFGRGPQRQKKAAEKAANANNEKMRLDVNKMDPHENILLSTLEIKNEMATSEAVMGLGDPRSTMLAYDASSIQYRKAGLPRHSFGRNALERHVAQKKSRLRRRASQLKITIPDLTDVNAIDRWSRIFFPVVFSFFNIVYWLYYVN
T5 sequence (P18508 39-466): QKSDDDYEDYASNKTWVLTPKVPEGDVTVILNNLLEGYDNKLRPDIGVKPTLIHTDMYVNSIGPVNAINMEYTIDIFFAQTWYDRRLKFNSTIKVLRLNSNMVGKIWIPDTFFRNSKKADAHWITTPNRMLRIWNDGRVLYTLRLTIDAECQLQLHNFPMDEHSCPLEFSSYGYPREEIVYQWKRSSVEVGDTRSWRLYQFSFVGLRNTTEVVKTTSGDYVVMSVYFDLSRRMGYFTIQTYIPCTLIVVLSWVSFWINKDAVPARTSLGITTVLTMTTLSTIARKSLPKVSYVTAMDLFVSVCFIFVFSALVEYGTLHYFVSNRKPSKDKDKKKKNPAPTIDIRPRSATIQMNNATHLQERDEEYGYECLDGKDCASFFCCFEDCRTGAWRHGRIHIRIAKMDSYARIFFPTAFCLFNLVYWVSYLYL
T8 sequence (P63138 25-474 limits assumed): as the sequence (P63138 25-474 T226S limits assumed) above, with S202T counted along it
T8 sequence (P18508 39-466 Y258Q): as the sequence (P18508 39-466) above, with Y220Q counted along it
T6 sequence (P63138 25-474 limits assumed): as the sequence (P63138 25-474 T226S limits assumed) above, with S202T counted along it
T6 sequence (P18508 39-466 F115Y): as the sequence (P18508 39-466) above, with F77Y counted along it
T7 sequence (P63138 25-474 limits assumed): as the sequence (P63138 25-474 T226S limits assumed) above, with S202T counted along it
T7 sequence (P18508 39-466 S255A): as the sequence (P18508 39-466) above, with S217A counted along it
T1 sequence (P63138 25-474 limits assumed): as the sequence (P63138 25-474 T226S limits assumed) above, with S202T counted along it
T1 sequence (P18508 39-466): as the sequence (P18508 39-466) above
T4 sequence (P63138 25-474 Y86L limits assumed): as the sequence (P63138 25-474 T226S limits assumed) above, with Y62L, S202T counted along it
T4 sequence (P18508 39-466): as the sequence (P18508 39-466) above
T2 sequence (P63138 25-474 limits assumed): as the sequence (P63138 25-474 T226S limits assumed) above, with S202T counted along it
T3 sequence (P18508 39-466): as the sequence (P18508 39-466) above
T9 sequence (P63138 25-474 T226A): as the sequence (P63138 25-474 T226S limits assumed) above, with S202A counted along it
T9 sequence (P18508 39-466): as the sequence (P18508 39-466) above
T12 sequence (P63138 25-474 limits assumed): as the sequence (P63138 25-474 T226S limits assumed) above, with S202T counted along it
T12 sequence (P18508 39-466 Y258S): as the sequence (P18508 39-466) above, with Y220S counted along it
T11 sequence (P63138 25-474 Y229Q): as the sequence (P63138 25-474 T226S limits assumed) above, with S202T, Y205Q counted along it
T11 sequence (P18508 39-466): as the sequence (P18508 39-466) above
T10 sequence (P63138 25-474 Y229S): as the sequence (P63138 25-474 T226S limits assumed) above, with S202T, Y205S counted along it
T10 sequence (P18508 39-466): as the sequence (P18508 39-466) above

NCCCC(=O)O [GABA, γ-Aminobutyric acid]
Hill coefficient of GABA (β2γ2 GABAA receptors; β2γ2): 1.0 ± 0.1 | GABA current amplitude (β2γ2 GABAA receptors; β2γ2, cRNA ratio 1:3, −80 mV): 131 ± 19 (13) nA | GABA current amplitude (β2γ2 GABAA receptors; β2γ2 from 1:1 and 2:1 cRNA ratios): less than 100 nA | GABA current amplitude (β2; 10 mM GABA): −4 ± 1 (4) nA | GABA current amplitude (γ2; 10 mM GABA): −4 ± 1 (5) nA | Hill coefficient of GABA (β2Y62Lγ2; β2Y62Lγ2): 1.0 ± 0.1 | GABA current amplitude (β2Y62Lγ2; β2Y62Lγ2, 10 mM GABA): 53 ± 8 (17) nA | Decrease in the sensitivity for GABA (β2Y62Lγ2; β2Y62Lγ2 vs wild-type β2γ2): 3 fold | Smaller GABA current amplitude compared to wild-type (β2Y62Lγ2; β2Y62Lγ2 vs wild-type β2γ2): 2 fold | Hill coefficient of GABA (β2T202Sγ2; β2T202Sγ2): 0.8 ± 0.1 | GABA current amplitude (β2T202Sγ2; β2T202Sγ2, 10 mM GABA): 203 ± 18 (5) nA | Decrease in GABA sensitivity (β2T202Sγ2; β2T202Sγ2 vs wild-type β2γ2): 42 fold | Hill coefficient of GABA (γ2F77Yβ2): 0.9 ± 0.1 | GABA current amplitude (γ2F77Yβ2; 10 mM GABA): 148 ± 23 (11) nA | Hill coefficient of GABA (γ2S217Aβ2; β2γ2S217A): 0.8 ± 0.1 | Decrease in sensitivity to GABA (γ2S217Aβ2; β2γ2S217A vs wild-type β2γ2): 2 fold | GABA current amplitude (γ2S217Aβ2; γ2S217Aβ2, 10 mM GABA): 100 ± 25 (13) nA | Hill coefficient of GABA (γ2Y220Qβ2; β2γ2Y220Q): 0.7 ± 0.1 | Decrease in sensitivity to GABA (γ2Y220Qβ2; β2γ2Y220Q vs wild-type β2γ2): 5 fold | GABA current amplitude (γ2Y220Qβ2; γ2Y220Qβ2, 10 mM GABA): 127 ± 40 (6) nA

CCOC(=O)c1cncn1[C@H](C)c1ccccc1 [etomidate]
Etomidate current relative to GABA current (fold larger) (β2γ2 GABAA receptors; wild type β2γ2, 50 µM etomidate vs saturating GABA): about 7 fold | Etomidate current amplitude (β2γ2 GABAA receptors; β2γ2, 50 µM etomidate, −80 mV): 946 ± 8 (4) nA | Etomidate current amplitude (β2; 50 µM etomidate): 4 ± 1 (4) nA | Etomidate current amplitude (γ2; 50 µM etomidate): 0 ± 0 (5) nA | Etomidate current amplitude (β2Y62Lγ2; β2Y62Lγ2, 50 µM etomidate): 13 ± 3 (11) nA | Etomidate current relative to GABA current (fold smaller) (β2Y62Lγ2; β2Y62Lγ2, 50 µM etomidate vs saturating GABA): about 4 fold | Etomidate current amplitude (β2T202Aγ2): 8 ± 2 (5) nA | Etomidate current amplitude (β2T202Sγ2; β2T202Sγ2, 50 µM etomidate): 380 ± 77 (5) nA | Etomidate current amplitude (β2Y205Sγ2): 0 ± 0 (5) nA | Etomidate current amplitude (β2Y205Qγ2): 6 ± 2 (5) nA | Etomidate current amplitude (γ2F77Yβ2; 50 µM etomidate): 193 ± 25 (4) nA | Etomidate current amplitude (γ2S217Aβ2; γ2S217Aβ2, 50 µM etomidate): 141 ± 31 (5) nA | Etomidate current amplitude (γ2Y220Sβ2): 76 ± 17 (5) nA | Etomidate current amplitude (γ2Y220Qβ2; γ2Y220Qβ2, 50 µM etomidate): 777 ± 113 (5) nA | Etomidate current relative to GABA current (fold smaller) (α1β2Y62Lγ2 receptors): about 30 fold

CN1C(=O)CN=C(c2ccccc2)c2cc(Cl)ccc21 [diazepam]
Hill coefficient of diazepam (β2γ2 GABAA receptors; β2γ2): 0.6 ± 0.1 | DZ potentiation (β2γ2 GABAA receptors; β2γ2): 216 ± 30% | DZ potentiation (β2γ2 GABAA receptors; β2γ2, listed as DZ): 216 ± 30 (15) % | DZ potentiation (β2Y62Lγ2; β2Y62Lγ2): not significantly affected | DZ potentiation (β2Y62Lγ2; β2Y62Lγ2, listed as DZ): 121 ± 12 (5) % | DZ potentiation (β2T202Sγ2; β2T202Sγ2): not significantly affected | DZ potentiation (β2T202Sγ2; β2T202Sγ2, listed as DZ): 100 ± 7 (4) % | DZ potentiation (γ2F77Yβ2): nearly lost | DZ potentiation (γ2F77Yβ2; listed as DZ): 5 ± 2 (5) % | DZ potentiation (γ2S217Aβ2; γ2S217Aβ2): not significantly affected | DZ potentiation (γ2S217Aβ2; γ2S217Aβ2, listed as DZ): 185 ± 23 (4) % | DZ potentiation (γ2Y220Qβ2; γ2Y220Qβ2): not significantly affected | DZ potentiation (γ2Y220Qβ2; γ2Y220Qβ2, listed as DZ): 127 ± 11 (6) % | Effect on DZ affinity (α1T206C in α1β2γ2): (no effect on DZ affinity) | Decrease in DZ affinity (α1T206V in α1β2γ2): (7-fold decrease in DZ affinity) | Decrease in DZ affinity (γ2F77Y in α1β2γ2; listed as DZ): 230-fold decrease in DZ affinity | Decrease in DZ affinity (γ2F77Y in α1β2γ2): abolishes the binding site | Decrease in DZ affinity (α1T206A in α1β2γ2): (3-fold decrease in DZ affinity) | Locomotor activity ([1]; quite prominent at higher doses): trend towards reduced locomotor activity | Diazepam-induced muscle relaxation and motor impairment [1]: completely protected | EC50 (α1β2γ2): 92 ± 6 nM
